pEC50: −log10 of the molar value.
The molecules below were run against human activated kallikrein enzyme (Homo sapiens, UniProt P03952) (assay: Plasma kallikrein inhibition, fluorogenic PFR-AMC substrate, 500 pM activated kallikrein format). Conditions: 500 pM activated kallikrein, 300 uM PFR-AMC, 30 min preincubation, 10 min reaction; read-out: Primary Dose Response Assay: Average EC50.
human activated kallikrein enzyme, sequence (P03952 391-638 limits assumed): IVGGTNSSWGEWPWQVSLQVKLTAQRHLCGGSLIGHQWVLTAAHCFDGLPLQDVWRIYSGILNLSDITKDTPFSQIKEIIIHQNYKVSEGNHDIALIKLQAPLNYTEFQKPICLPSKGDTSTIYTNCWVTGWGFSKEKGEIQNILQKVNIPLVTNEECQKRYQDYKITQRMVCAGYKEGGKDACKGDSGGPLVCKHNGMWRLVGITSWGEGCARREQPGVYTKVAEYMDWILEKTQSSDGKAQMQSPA
human activated kallikrein enzyme, sequence (P03952 20-390 partner limits assumed): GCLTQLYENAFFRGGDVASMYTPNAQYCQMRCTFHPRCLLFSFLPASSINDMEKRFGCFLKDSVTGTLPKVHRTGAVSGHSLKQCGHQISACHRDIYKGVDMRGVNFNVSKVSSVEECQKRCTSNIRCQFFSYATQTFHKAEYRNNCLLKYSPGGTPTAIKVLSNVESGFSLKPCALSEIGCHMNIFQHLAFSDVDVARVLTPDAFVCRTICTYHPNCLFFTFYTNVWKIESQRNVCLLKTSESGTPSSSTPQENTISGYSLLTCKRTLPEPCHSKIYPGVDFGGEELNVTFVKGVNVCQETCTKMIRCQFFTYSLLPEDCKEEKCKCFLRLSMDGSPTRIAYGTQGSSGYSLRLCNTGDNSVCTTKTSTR
Type: biochemical
Method in brief: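 Fluorogenic readout (ex 380 / em 460 nm) after 10 min room-temperature reaction with 300 uM Pro-Phe-Arg-AMC substrate, following 30 min preincubation of inhibitors with 500 pM enzyme. Buffer: Tris pH 7.5, EDTA, NaCl, PEG-400, Triton X-100. Values given as EC50 ranges.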
`COc1cc([C@H]2C[C@@H]2C(=O)Nc2cc(NCc3cn4cc(C5CC5)ccc4n3)ccn2)cc(NC(=O)OC(C)(C)C)n1` (racemic) [Example I-216, rac-tert-butyl (4-((1S*,2S*)-2-((4-(((6-cyclopropylimidazo[1,2-a]pyridin-2-yl)methyl)amino)pyridin-2-yl)carbamoyl)cyclopropyl)-6-methoxypyridin-2-yl)carbamate] gave a pEC50 of less than 5.22. `O=C(Nc1cc(NCc2cn3cc(C4CC4)ccc3n2)ncn1)[C@H]1C[C@@H]1c1cccc(Cl)c1[N+](=O)[O-]` (racemic) [Example I-190, rac-(1S*,2S*)-2-(3-chloro-2-nitrophenyl)-N-(6-(((6-cyclopropylimidazo[1,2-a]pyridin-2-yl)methyl)amino)pyrimidin-4-yl)cyclopropane-1-carboxamide] gave a pEC50 of less than 5.22. `Cc1ccnc([C@H]2C[C@@H]2C(=O)Nc2cnnc(OCc3cn4cc(C5CC5)cc(N5CC(=O)N(C)C5=O)c4n3)c2)n1` [Example I-648, (1S,2S)—N-(6-((6-cyclopropyl-8-(3-methyl-2,4-dioxoimidazolidin-1-yl)imidazo[1,2-a]pyridin-2-yl)methoxy)pyridazin-4-yl)-2-(4-methylpyrimidin-2-yl)cyclopropane-1-carboxamide] showed a pEC50 greater than 9.00. Molecule `O=C(Nc1cc(NCc2cn3cc(C4CC4)ccc3n2)ccn1)[C@H]1C[C@@H]1c1cncc(Cl)c1` (racemic) [Example I-221, rac-(1S*,2S*)-2-(5-chloropyridin-3-yl)-N-(4-(((6-cyclopropylimidazo[1,2-a]pyridin-2-yl)methyl)amino)pyridin-2-yl)cyclopropane-1-carboxamide] has a pEC50 of 7.00 to 8.00. Work on `O=C(Nc1cc(NCc2cn3cc(C4CC4)cc(N4CCOCC4)c3n2)ncn1)[C@H]1C[C@@H]1c1cccc(Cl)c1` [Example I-154, (1S,2S)-2-(3-chlorophenyl)-N-(6-(((6-cyclopropyl-8-morpholinoimidazo[1,2-a]pyridin-2-yl)methyl)amino)pyrimidin-4-yl)cyclopropane-1-carboxamide] yielded a pEC50 of 8.00 to 9.00. Molecule `Cc1ccnc([C@H]2C[C@@H]2C(=O)Nc2cc(OCc3cn4cc(C5(F)CC5)cc(N5CC(=O)N(C)C5=O)c4n3)cnn2)n1` [Example 676, (1S,2S)—N-(5-((6-(1-fluorocyclopropyl)-8-(3-methyl-2,4-dioxoimidazolidin-1-yl)imidazo[1,2-a]pyridin-2-yl)methoxy)pyridazin-3-yl)-2-(4-methylpyrimidin-2-yl)cyclopropane-1-carboxamide] has a pEC50 greater than 9.00. `Cc1ccnc([C@H]2C[C@@H]2C(=O)Nc2nccc3nn(Cc4cn5cc(C6CC6)cc(N6CC(=O)N(C)C6=O)c5n4)cc23)n1` (racemic) [Example 576, rac-(1S*,2S*)—N-(2-((6-cyclopropyl-8-(3-methyl-2,4-dioxoimidazolidin-1-yl)imidazo[1,2-a]pyridin-2-yl)methyl)-2H-pyrazolo[4,3-c]pyridin-4-yl)-2-(4-methylpyrimidin-2-yl)cyclopropane-1-carboxamide] showed a pEC50 greater than 9.00. For `Cc1ccnc([C@H]2C[C@@H]2C(=O)Nc2nncc(N[C@H](C)c3cn4cc(C5CC5)cc(N5CC(=O)N(C)C5=O)c4n3)n2)n1` [Example 665, (1S,2S)—N-(5-(((R)-1-(6-cyclopropyl-8-(3-methyl-2,4-dioxoimidazolidin-1-yl)imidazo[1,2-a]pyridin-2-yl)ethyl)amino)-1,2,4-triazin-3-yl)-2-(4-methylpyrimidin-2-yl)cyclopropane-1-carboxamide], the pEC50 was greater than 9.00. `COCc1nc(NC(=O)[C@H]2C[C@@H]2c2nccc(C)n2)cc(N[C@H](C)c2cn3cc(C)cc(N4CC(=O)N(C)C4=O)c3n2)n1` [Example 438, (1S,2S)-N-(2-(methoxymethyl)-6-(((R)-1-(6-methyl-8-(3-methyl-2,4-dioxoimidazolidin-1-yl)imidazo[1,2-a]pyridin-2-yl)ethyl)amino)pyrimidin-4-yl)-2-(4-methylpyrimidin-2-yl)cyclopropane-1-carboxamide] showed a pEC50 greater than 9.00. `N#Cc1cc(Cl)sc1[C@H]1C[C@@H]1C(=O)Nc1cc(NCc2cn3cc(C4CC4)ccc3n2)ccn1` (racemic) [Example I-212, rac-(1S*,2S*)-2-(5-chloro-3-cyanothiophen-2-yl)-N-(4-(((6-cyclopropylimidazo[1,2-a]pyridin-2-yl)methyl)amino)pyridin-2-yl)cyclopropane-1-carboxamide] gave a pEC50 of 8.00 to 9.00. Molecule `NC(=O)c1cc(C2CC2)cn2cc(CNc3cc(NC(=O)[C@H]4C[C@@H]4c4cccc(Cl)c4)ncn3)nc12` [Example 302, 2-(((6-((1S,2S)-2-(3-chlorophenyl)cyclopropane-1-carboxamido)pyrimidin-4-yl)amino)methyl)-6-cyclopropylimidazo[1,2-a]pyridine-8-carboxamide] has a pEC50 of 8.00 to 9.00. In the case of `Cc1ccnc([C@H]2C[C@@H]2C(=O)Nc2cc(F)cc(OCc3cn4cc(C5CC5)cc(N5CC(=O)N(C)C5=O)c4n3)n2)n1` [Example 675, (1S,2S)—N-(6-((6-cyclopropyl-8-(3-methyl-2,4-dioxoimidazolidin-1-yl)imidazo[1,2-a]pyridin-2-yl)methoxy)-4-fluoropyridin-2-yl)-2-(4-methylpyrimidin-2-yl)cyclopropane-1-carboxamide], the pEC50 was greater than 9.00. In the case of `O=C(Nc1cc(N2CC[C@H](O)[C@H]2c2cn3cc(C4CC4)ccc3n2)ncn1)[C@H]1C[C@@H]1c1cccc(Cl)c1` [Example 484, (1S,2S)-2-(3-chlorophenyl)-N-(6-((2R,3S)-2-(6-cyclopropylimidazo[1,2-a]pyridin-2-yl)-3-hydroxypyrrolidin-1-yl)pyrimidin-4-yl)cyclopropane-1-carboxamide], the pEC50 was less than 5.22. With `O=C(Nc1cc(NCc2cn3cc(C4CC4)ccc3n2)ccn1)[C@@H]1C[C@H]1c1cccc(Cl)c1` (racemic) [Example 115, rac-(1S*,2S*)-2-(3-chlorophenyl)-N-(4-(((6-cyclopropylimidazo[1,2-a]pyridin-2-yl)methyl)amino)pyridin-2-yl)cyclopropane-1-carboxamide] the pEC50 was 8.00 to 9.00. `CCc1cc(N2CC(=O)N(C)C2=O)c2nc([C@@H](C)Nc3cc(NC(=O)[C@H]4C[C@@H]4c4nccc(C)n4)ncn3)cn2c1` [Example 419, (1S,2S)-N-(6-(((R)-1-(6-ethyl-8-(3-methyl-2,4-dioxoimidazolidin-1-yl)imidazo[1,2-a]pyridin-2-yl)ethyl)amino)pyrimidin-4-yl)-2-(4-methylpyrimidin-2-yl)cyclopropane-1-carboxamide] gave a pEC50 greater than 9.00. In the case of `CN1C(=O)CN(c2cc(C3CC3)cn3cc(CNc4cc(NC(=O)C5CC5(F)c5cccc(Cl)c5)ncn4)nc23)C1=O` (racemic) [Example 329, rac-2-(3-chlorophenyl)-N-(6-(((6-cyclopropyl-8-(3-methyl-2,4-dioxoimidazolidin-1-yl)imidazo[1,2-a]pyridin-2-yl)methyl)amino)pyrimidin-4-yl)-2-fluorocyclopropane-1-carboxamide], the pEC50 was 8.00 to 9.00. `CCc1cc(N2CC(=O)N(C)C2=O)c2nc(CNc3cc(NC(=O)[C@H]4C[C@@H]4c4nccc(C)n4)ncn3)cn2c1` [Example 538, (1S,2S)-N-(6-(((6-ethyl-8-(3-methyl-2,4-dioxoimidazolidin-1-yl)imidazo[1,2-a]pyridin-2-yl)methyl)amino)pyrimidin-4-yl)-2-(4-methylpyrimidin-2-yl)cyclopropane-1-carboxamide] was tested, and the pEC50 was greater than 9.00. `Cc1ccnc([C@H]2C[C@@H]2C(=O)Nc2cc(N[C@@H](C)c3cn4cc(C5CC5)cc(N5CC(=O)N(C)C5=O)c4n3)ncn2)n1` (single isomer, unassigned) [Example 452] showed a pEC50 of 7.00 to 8.00.

From patent US20240228488A1 (TAKEDA PHARMACEUTICAL COMPANY LIMITED, priority 2021, published 2024)
